We go through three molecules from PMC3584069, “The Interaction of the Chemotherapeutic Drug Chlorambucil with Human Glutathione Transferase A1-1: Kinetic and Structural Analysis” (PLoS ONE, 2013).

The target of data set [1] is T1, human glutathione transferase A1-1 (hGSTA1-1) (Homo sapiens, UniProt P08263).
T1 construct: gene GSTA1; recombinant purified hGSTA1-1 homodimer
T1 sequence (P08263 2-222): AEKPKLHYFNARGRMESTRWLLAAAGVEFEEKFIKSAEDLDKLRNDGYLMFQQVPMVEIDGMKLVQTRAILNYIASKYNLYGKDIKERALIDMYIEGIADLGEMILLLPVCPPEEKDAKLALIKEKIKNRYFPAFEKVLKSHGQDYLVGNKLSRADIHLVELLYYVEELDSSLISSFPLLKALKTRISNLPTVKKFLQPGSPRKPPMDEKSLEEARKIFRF
In words: X-ray crystal structure (GSH moiety of the GSH–CBL adduct); initial velocity kinetics with GSH as variable substrate. It counts as binding.

Data set [2] concerns the target T1, human glutathione transferase A1-1 (hGSTA1-1). In words: irreversible enzyme inactivation kinetics in absence of GSH (apparent KD, fast phase), MALDI-TOF MS of CBL-modified subunit, DTNB cysteine titration; also a substrate in presence of GSH. It is filed as biochemical. The settings on record: read-out: Kd.
Data set [3] concerns the molecule itself. In words: crystal structure; hGSTA1-1 (19.7 mg/mL) incubated with CBL at 1:3 molar ratio; 17-20% PEG 2000, 0.1 M Tris-HCl pH 7.5, 0.1 mM beta-mercaptoethanol, vapor diffusion at 20°C; 2.1 Å; monomers A and B in the model.

On to `N[C@@H](CCC(=O)N[C@@H](CS)C(=O)NCC(=O)O)C(=O)O` [GSH], for which the “X-ray crystal structure (GSH moiety of the GSH-CBL adduct); initial velocity kin” value in data set [1] is listed as “Difference Fourier electron density maps indicate the presence of a GSH moiety in the G-site of the enzyme”.
For `O=C(O)CCCc1ccc(N(CCCl)CCCl)cc1` [chlorambucil], the KI (inactivation) in data set [2] was found to be 2950 ± 500 µM.

B1: human glutathione transferase A1-1 (enzyme)
chain: KPKLHYFNARGRMESTRWLLAAAGVEFEEKFIKSAEDLDKLRNDGYLMFQQVPMVEIDGMKLVQTRAILNYIASKYNLYGKDIKERALIDMYIEGIADLGEMILLLPVCPPEEKDAKLALIKEKIKNRYFPAFEKVLKSHGQDYLVGNKLSRADIHLVELLYYVEELDSSLISSFPLLKALKTRISNLPTVKKFLQPGSPRKPPMDEKSLEEARKIF
notes: glutathione transferase A1 subunit, human; the crystal model holds residues 4-220 (monomer A) and 3-221 (monomer B, without 112-115); Homodimer; MALDI-TOF of the unmodified subunit: m/z 25,482; also called hGSTA1-1; GSTA1-1; source: recombinant
Consider B1, for which the binding result in data set [3] is reported as “binds”.
